Test results: the NIST ThermoML archive (doi:10.1021/je0601457)
± gives the expanded uncertainty stated by the source.

Test: xn = mol fraction of the nth substance listed

Compound: Cc1cnccn1 [2-methylpyrazine] + O=C=O
- mass density (305.05 K, 15480 kPa, Fluid (supercritical or subcritical phases), Linear displacement technique, x1 = 0.624): 942 ± 38 kg/m3
- mass density (305.05 K, Liquid, linear displacement, x1 = 0.624): 919 ± 37 kg/m3
- mass density (307.45 K, 8340 kPa, Fluid (supercritical or subcritical phases), Linear displacement technique, x1 = 0.339): 950 ± 38 kg/m3
- mass density (307.45 K, 11280 kPa, Fluid (supercritical or subcritical phases), Linear displacement technique, x1 = 0.339): 957 ± 38 kg/m3
- mass density (307.45 K, 16170 kPa, Fluid (supercritical or subcritical phases), Linear displacement technique, x1 = 0.339): 965 ± 39 kg/m3
- mass density (307.45 K, Liquid, linear displacement, x1 = 0.339): 937 ± 37 kg/m3
- mass density (307.55 K, 2720 kPa, Fluid (supercritical or subcritical phases), Linear displacement technique, x1 = 0.857): 922 ± 37 kg/m3
- mass density (307.55 K, 4900 kPa, Fluid (supercritical or subcritical phases), Linear displacement technique, x1 = 0.857): 926 ± 37 kg/m3
- mass density (307.55 K, 6860 kPa, Fluid (supercritical or subcritical phases), Linear displacement technique, x1 = 0.857): 928 ± 37 kg/m3
- mass density (307.55 K, 11550 kPa, Fluid (supercritical or subcritical phases), Linear displacement technique, x1 = 0.857): 934 ± 37 kg/m3
- mass density (307.55 K, Liquid, linear displacement, x1 = 0.857): 916 ± 37 kg/m3
- mass density (309.15 K, 8070 kPa, Fluid (supercritical or subcritical phases), Linear displacement technique, x1 = 0.122): 948 ± 41 kg/m3
- mass density (309.15 K, 11140 kPa, Fluid (supercritical or subcritical phases), Linear displacement technique, x1 = 0.122): 972 ± 39 kg/m3
- mass density (309.15 K, 14720 kPa, Fluid (supercritical or subcritical phases), Linear displacement technique, x1 = 0.122): 992 ± 40 kg/m3
- mass density (309.15 K, Liquid, linear displacement, x1 = 0.122): 934 ± 37 kg/m3
- mass density (309.95 K, 8520 kPa, Fluid (supercritical or subcritical phases), Linear displacement technique, x1 = 0.017): 652 ± 27 kg/m3
- mass density (309.95 K, 10170 kPa, Fluid (supercritical or subcritical phases), Linear displacement technique, x1 = 0.017): 701 ± 29 kg/m3
- mass density (309.95 K, 11590 kPa, Fluid (supercritical or subcritical phases), Linear displacement technique, x1 = 0.017): 724 ± 31 kg/m3
- mass density (309.95 K, Liquid, linear displacement, x1 = 0.017): 621 ± 25 kg/m3
- mass density (311.75 K, 8520 kPa, Fluid (supercritical or subcritical phases), Linear displacement technique, x1 = 0.033): 764 ± 32 kg/m3
- mass density (311.75 K, 10790 kPa, Fluid (supercritical or subcritical phases), Linear displacement technique, x1 = 0.033): 831 ± 34 kg/m3
- mass density (311.75 K, 13310 kPa, Fluid (supercritical or subcritical phases), Linear displacement technique, x1 = 0.033): 871 ± 35 kg/m3
- mass density (311.75 K, 15760 kPa, Fluid (supercritical or subcritical phases), Linear displacement technique, x1 = 0.033): 905 ± 37 kg/m3
- mass density (311.75 K, Liquid, linear displacement, x1 = 0.033): 747 ± 30 kg/m3
- mass density (315.25 K, 9690 kPa, Fluid (supercritical or subcritical phases), Linear displacement technique, x1 = 0.039): 722 ± 30 kg/m3
- mass density (315.25 K, 10690 kPa, Fluid (supercritical or subcritical phases), Linear displacement technique, x1 = 0.039): 749 ± 31 kg/m3
- mass density (315.25 K, 12660 kPa, Fluid (supercritical or subcritical phases), Linear displacement technique, x1 = 0.039): 777 ± 31 kg/m3
- mass density (315.25 K, 14660 kPa, Fluid (supercritical or subcritical phases), Linear displacement technique, x1 = 0.039): 812 ± 33 kg/m3
- mass density (315.25 K, Liquid, linear displacement, x1 = 0.039): 682 ± 27 kg/m3
- mass density (315.45 K, 8620 kPa, Fluid (supercritical or subcritical phases), Linear displacement technique, x1 = 0.062): 781 ± 32 kg/m3
- mass density (315.45 K, 11210 kPa, Fluid (supercritical or subcritical phases), Linear displacement technique, x1 = 0.062): 824 ± 33 kg/m3
- mass density (315.45 K, 13170 kPa, Fluid (supercritical or subcritical phases), Linear displacement technique, x1 = 0.062): 846 ± 34 kg/m3
- mass density (315.45 K, 16310 kPa, Fluid (supercritical or subcritical phases), Linear displacement technique, x1 = 0.062): 879 ± 35 kg/m3
- mass density (315.45 K, Liquid, linear displacement, x1 = 0.062): 766 ± 31 kg/m3
- mass density (316.45 K, 6030 kPa, Fluid (supercritical or subcritical phases), Linear displacement technique, x1 = 0.624): 912 ± 36 kg/m3
- mass density (316.45 K, 10030 kPa, Fluid (supercritical or subcritical phases), Linear displacement technique, x1 = 0.624): 917 ± 37 kg/m3
- mass density (316.45 K, 13210 kPa, Fluid (supercritical or subcritical phases), Linear displacement technique, x1 = 0.624): 920 ± 37 kg/m3
- mass density (316.45 K, 17280 kPa, Fluid (supercritical or subcritical phases), Linear displacement technique, x1 = 0.624): 926 ± 37 kg/m3
- mass density (316.45 K, Liquid, linear displacement, x1 = 0.624): 907 ± 36 kg/m3
- mass density (317.55 K, 11280 kPa, Fluid (supercritical or subcritical phases), Linear displacement technique, x1 = 0.091): 882 ± 35 kg/m3
- mass density (317.55 K, 14550 kPa, Fluid (supercritical or subcritical phases), Linear displacement technique, x1 = 0.091): 913 ± 37 kg/m3
- mass density (317.55 K, 16520 kPa, Fluid (supercritical or subcritical phases), Linear displacement technique, x1 = 0.091): 930 ± 37 kg/m3
- mass density (317.55 K, Liquid, linear displacement, x1 = 0.091): 841 ± 34 kg/m3
- mass density (317.85 K, 8520 kPa, Fluid (supercritical or subcritical phases), Linear displacement technique, x1 = 0.156): 887 ± 36 kg/m3
- mass density (317.85 K, 11140 kPa, Fluid (supercritical or subcritical phases), Linear displacement technique, x1 = 0.156): 898 ± 36 kg/m3
- mass density (317.85 K, 12310 kPa, Fluid (supercritical or subcritical phases), Linear displacement technique, x1 = 0.156): 899 ± 36 kg/m3
- mass density (317.85 K, Liquid, linear displacement, x1 = 0.156): 885 ± 35 kg/m3
- mass density (317.95 K, 7340 kPa, Fluid (supercritical or subcritical phases), Linear displacement technique, x1 = 0.264): 858 ± 34 kg/m3
- mass density (317.95 K, 9000 kPa, Fluid (supercritical or subcritical phases), Linear displacement technique, x1 = 0.264): 863 ± 35 kg/m3
- mass density (317.95 K, 11830 kPa, Fluid (supercritical or subcritical phases), Linear displacement technique, x1 = 0.264): 872 ± 35 kg/m3
- mass density (317.95 K, 15410 kPa, Fluid (supercritical or subcritical phases), Linear displacement technique, x1 = 0.264): 882 ± 35 kg/m3
- mass density (317.95 K, Liquid, linear displacement, x1 = 0.264): 856 ± 34 kg/m3
- mass density (320.75 K, 10340 kPa, Fluid (supercritical or subcritical phases), Linear displacement technique, x1 = 0.122): 910 ± 37 kg/m3
- mass density (320.75 K, 11760 kPa, Fluid (supercritical or subcritical phases), Linear displacement technique, x1 = 0.122): 924 ± 37 kg/m3
- mass density (320.75 K, 14380 kPa, Fluid (supercritical or subcritical phases), Linear displacement technique, x1 = 0.122): 944 ± 38 kg/m3
- mass density (320.75 K, Liquid, linear displacement, x1 = 0.122): 890 ± 36 kg/m3
- mass density (322.95 K, 4760 kPa, Fluid (supercritical or subcritical phases), Linear displacement technique, x1 = 0.857): 905 ± 36 kg/m3
- mass density (322.95 K, 8520 kPa, Fluid (supercritical or subcritical phases), Linear displacement technique, x1 = 0.857): 909 ± 36 kg/m3
- mass density (322.95 K, 12620 kPa, Fluid (supercritical or subcritical phases), Linear displacement technique, x1 = 0.857): 914 ± 37 kg/m3
- mass density (322.95 K, 17030 kPa, Fluid (supercritical or subcritical phases), Linear displacement technique, x1 = 0.857): 918 ± 37 kg/m3
- mass density (322.95 K, Liquid, linear displacement, x1 = 0.857): 900 ± 36 kg/m3
- mass density (325.15 K, 7000 kPa, Fluid (supercritical or subcritical phases), Linear displacement technique, x1 = 0.339): 932 ± 37 kg/m3
- mass density (325.15 K, 10590 kPa, Fluid (supercritical or subcritical phases), Linear displacement technique, x1 = 0.339): 941 ± 38 kg/m3
- mass density (325.15 K, 15280 kPa, Fluid (supercritical or subcritical phases), Linear displacement technique, x1 = 0.339): 952 ± 38 kg/m3
- mass density (325.15 K, Liquid, linear displacement, x1 = 0.339): 929 ± 37 kg/m3
- mass density (326.65 K, 11620 kPa, Fluid (supercritical or subcritical phases), Linear displacement technique, x1 = 0.039): 667 ± 28 kg/m3
- mass density (326.65 K, 12280 kPa, Fluid (supercritical or subcritical phases), Linear displacement technique, x1 = 0.039): 690 ± 30 kg/m3
- mass density (326.65 K, 13620 kPa, Fluid (supercritical or subcritical phases), Linear displacement technique, x1 = 0.039): 725 ± 30 kg/m3
- mass density (326.65 K, Liquid, linear displacement, x1 = 0.039): 595 ± 24 kg/m3
- mass density (327.35 K, 10790 kPa, Fluid (supercritical or subcritical phases), Linear displacement technique, x1 = 0.091): 808 ± 33 kg/m3
- mass density (327.35 K, 11520 kPa, Fluid (supercritical or subcritical phases), Linear displacement technique, x1 = 0.091): 822 ± 33 kg/m3
- mass density (327.35 K, 13340 kPa, Fluid (supercritical or subcritical phases), Linear displacement technique, x1 = 0.091): 848 ± 34 kg/m3
- mass density (327.35 K, 15830 kPa, Fluid (supercritical or subcritical phases), Linear displacement technique, x1 = 0.091): 875 ± 35 kg/m3
- mass density (327.35 K, Liquid, linear displacement, x1 = 0.091): 794 ± 33 kg/m3
- mass density (328.75 K, 9900 kPa, Fluid (supercritical or subcritical phases), Linear displacement technique, x1 = 0.156): 872 ± 35 kg/m3
- mass density (328.75 K, 11000 kPa, Fluid (supercritical or subcritical phases), Linear displacement technique, x1 = 0.156): 878 ± 35 kg/m3
- mass density (328.75 K, 13900 kPa, Fluid (supercritical or subcritical phases), Linear displacement technique, x1 = 0.156): 890 ± 36 kg/m3
- mass density (328.75 K, Liquid, linear displacement, x1 = 0.156): 868 ± 35 kg/m3
- mass density (329.15 K, 10450 kPa, Fluid (supercritical or subcritical phases), Linear displacement technique, x1 = 0.017): 407 ± 36 kg/m3
- mass density (329.15 K, 11930 kPa, Fluid (supercritical or subcritical phases), Linear displacement technique, x1 = 0.017): 574 ± 33 kg/m3
